From article PMC9144433, “The Effect of Standardised Leaf Extracts of Gaultheria procumbens on Multiple Oxidants, Inflammation-Related Enzymes, and Pro-Oxidant and Pro-Inflammatory Functions of Human Neutrophils” (Molecules, 2022)

How the values were obtained:
[1] = target: T1, hyaluronidase (HYAL); assay: HYAL inhibition, 96-well plate reader; assay type: biochemical; settings: positive control; n = […]
T1 construct: gene SPAM1; reagents from Sigma-Aldrich; bovine testes preparation is usual
Source text: HYAL inhibition, 96-well plate reader on hyaluronidase (HYAL)

[2] = target: T2, lipoxygenase (LOX); assay: LOX inhibition, 96-well plate reader; assay type: biochemical; settings: positive control; n = […]
T2 construct: gene LOX1.1; reagents from Sigma-Aldrich; soybean enzyme is usual

## C[C@@H]1C[C@H]2[C@@H]3CCC4=CC(=O)C=C[C@]4(C)[C@@]3(F)[C@@H](O)C[C@]2(C)[C@@]1(O)C(=O)CO [DEX]
[1]
  HYAL / IC50 (μg/mL) ^a: 14.07 ± 1.25 µg/mL
[2]
  LOX / IC50 (μg/mL) ^a: 120.16 ± 4.86 µg/mL

## O=c1c(O)c(-c2ccc(O)c(O)c2)oc2cc(O)cc(O)c12 [compound 41, QU]
[1]
  HYAL / IC50 (μg/mL) ^a: 31.78 ± 1.52 µg/mL

## COc1ccc2c(c1)c(CC(=O)O)c(C)n2C(=O)c1ccc(Cl)cc1 [IND]
[1]
  HYAL / IC50 (μg/mL) ^a: 12.68 ± 1.79 µg/mL
[2]
  LOX / IC50 (μg/mL) ^a: 91.89 ± 3.95 µg/mL
